Measurements taken from patent US20240315992A1, “AMINOXY ACID-BASED ANTIBACTERIAL COMPOUNDS AND METHODS THEREOF” (The University of Hong Kong, priority 2023, published 2024).
Converted amounts (≈) assume the structure as drawn. Read-outs that look alike come from different tables or passages of the source.

How the values were obtained:
Type in all cases: cell-based
[1] = system: multidrug resistant Staphylococcus aureus Mu3; assay: MIC by CLSI broth micro-dilution, MRSA Mu3
Procedure: (§1) Aminoxy acids were synthesized by the standard peptide coupling procedures. Minimum inhibitory concentration was determined using CLSI broth micro-dilution method in 96-wells microtitre plates. Minimum inhibitory concentration is defined as the lowest concentration of the compound that inhibits visible growth of the bacteria. All experiments were performed three times. 24 compounds including aminoxy acid monomers and dipeptides have been identified to show toxicity against multidrug resistant Staphylococcus aureus Mu3 and summarized in Table 1. The minimum inhibitory concentration of compound 8 and compound 35 on other gram-positive bacteria was also evaluated and summarized in Table 2. […] As shown in FIGS. 3A-3B there are no observable hemolysis for compound 8 and compound 35 towards human red blood cell.
(§2) Bacteria were streaked from the glycerol stock into BHI agar and were incubated overnight. Single colony was picked for the overnight culture in cation-adjusted Mueller Hinton broth (CAMH), LB or BHI. The overnight culture was sub-cultured and regrew to exponential phase for the experiment.
MIC was determined by CLSI broth micro-dilution method in 96-wells microtitre plates. For compounds dissolved in water, 100 μL of 2× testing concentration was added to the first well of each column, followed by two-fold serial dilution for successive wells with 50 μL medium. For chemical compounds dissolved in DMSO, the compounds were two-fold serial diluted by DMSO in a DMSO-compatible 96-well plate. 1 μL of compound in DMSO was transferred into 96-wells microtitre plate containing 50 μL medium to give 2× testing concentration. An overnight culture of bacteria was grown into exponential phase. The bacteria culture was diluted to 1×10^6 CFU/mL and 50 μL of diluted culture were added into each well. The test plates were kept in a 37° C. incubator overnight. Optical density was recorded by DTX 880 multimode detector (Beckman Coulter, California, US). MIC is defined as the lowest concentration of the compound that inhibits visible growth of bacteria. Biological replicates were performed. CAMH was used for bacteria culture and MIC test except S. pneumoniae, L. monocytogenes, E. faecalis and M. smegmatis for which BHI was used as culture medium

MSSA ATCC 6538 = assay: MIC by CLSI broth micro-dilution, MSSA ATCC 6538; conditions: Staphylococcus aureus, read-out: Minimum inhibitory concentration
Procedure: as §1, §2
(§3) MIC was determined by CLSI broth micro-dilution method in 96-wells microtitre plates. […] Optical density was recorded by DTX 880 multimode detector (Beckman Coulter, California, US). […]

MRSA-USA300LAC = assay: MIC by CLSI broth micro-dilution, MRSA-USA300LAC; conditions: Staphylococcus aureus, read-out: Minimum inhibitory concentration
Procedure: as §1, §2, §3

NIH3T3 cells = assay: Mammalian cell cytotoxicity assay (MTT), NIH3T3; conditions: for IC50: Mus musculus, NIH3T3, MTT assay, 24 hours, read-out: IC50, toxicity towards mammalian cells NIH3T3; for toxicity against mammalian cell NIH3T3: at 16 folded MIC (50 μM compound 8, 12.5 μM compound 35)
Procedure: NIH3T3 cells were cultured in DMEM supplemented with 10% fetal bovine serum (FBS), 100 U/ml penicillin and 0.1 mg/ml streptomycin. Cells were grown in treated culture flasks at 37° C. in a 5% CO2 humidified incubator and passaged every 2-3 days.
(§4) In the treated culture dish, cells were washed by PBS and then trypsinized. DMEM was added to quench the reaction. Cells were centrifuged and resuspended into fresh DMEM. Cells were then seeded in 96-well microtitre plate (100 μL, 5000 cells per well) for 24 hours before addition of compounds. The compounds were two-fold serial diluted by DMSO in a DMSO-compatible 96-well plate. 1 μL of compound in DMSO is transferred into the 96-well microtitre preparation plate containing 100 μL DMEM medium. The medium in culture plate was removed and compounds in preparation plate were transferred to culture plate. Equal volume of DMSO was used as negative control.
(§5) After 24 hours of incubation of cells, cell viability was measured by MTT assay. In MTT assay, 20 μL 5 mg/mL MTT solution in PBS was added to cell medium and cultured for 3 hours. The medium was then removed and 50 μL DMSO was added and cultured for 10 minutes. Absorbance at 595 nm was measured spectrophotometrically (Beckman Coulter DTX 880 Multimode Detector) and normalized to DMSO group. Biological replicates were performed.

MDCK = assay: Mammalian cell cytotoxicity assay (MTT), MDCK; conditions: at 16 folded MIC (50 μM compound 8, 12.5 μM compound 35)
Procedure: FIGS. 2A-2B are the bar graphs showing the cytotoxicity of compound 8 (FIG. 2A) and compound 35 (FIG. 2B) towards mammalian cell NIH3T3, MDCK and MIHA. % survival is mean±S.D normalized to DMSO as the negative control of a representative experiment. Biological triplicates were conducted.
as §4, §5

human red blood cell = assay: Hemolysis assay; conditions: up to the highest concentration 100 μM, 2 hours, 37° C.
Procedure: FIGS. 3A-3B are diagrams showing the hemolysis ability of compound 8 (FIG. 3A) and compound 35 (FIG. 3B) towards human red blood cell. % Hemolysis were mean±S.D of biological triplicates normalized to 0.1% triton X-100 as positive control.
Citrate-phosphate-dextrose (CPD) human whole blood was obtained from Hong Kong Red Cross. Whole blood was centrifuged in 1000 rpm for 10 minutes to remove the upper plasma layer. The remaining portion was washed by 1×PBS 3 times or until the upper PBS layer was transparent. The upper PBS layer was removed and the lower blood cell layer was diluted into 2% in PBS. 200 μL 2% blood in PBS was then added to round-bottom 96-well plate. Compounds were subsequently added to 96-well plate on 1% DMSO concentration. After incubation in 37° C. for 2 hours, the round-bottom 96-well plate was centrifuged in 1000 rpm for 10 minutes. 50 μL supernatant was transferred to a flat-bottom 96-well plate. Absorbance at 405 nm was then measured by Beckman Coulter DTX 880 Multimode Detector. Biological replicates were performed.

[2] = system: Staphylococcus aureus ATCC 29213; assay: Scanning and transmission electron microscopy; conditions: 24 hours treatment, SEM and TEM
Procedure: FIGS. 16A-16B are the images showing the compound 8 and compound 35 can induced the cell burst of Staphylococcus aureus. (FIG. 16A) Cells are imaged under scanning electron microscope. (FIG. 16B) Cells are imaged under transmission electron microscope.
Briefly, an overnight culture of Staphylococcus aureus ATCC 29213 was sub-cultured 1:100 in fresh CAMH and regrown for 2 hours. Then the bacteria were treated with compound or DMSO negative control for 24 hours. The bacterial pellet was resuspended in PBS and loaded on 0.22 μm filter membrane. The bacteria were fixed on the membrane by 2.5% glutaraldehyde for overnight at 4° C. The filter membranes were washed by PBS and subsequently dehydrated using ethanol as shown below.
The samples were submitted to HKU Electron Microscope Unit (EMU) for critical point drying, mounting and coating of the specimens. Samples were then observed using LEO 1530 FEG Scanning Electron Microscope.
Briefly, an overnight culture of Staphylococcus aureus ATCC 29213 was sub-cultured 1:100 in fresh CAMH and regrown for 2 hours. Then the bacteria were treated with compound or negative control DMSO for 24 hours. The bacterial pellet was then washed by PBS and fixed in cacodylate buffer (0.1 M sodium cacodylate-HCl buffer pH 7.4) for 1 hour at 4° C. […]

[3] = MRSA Mu3 (Table 2), read-out: Minimum inhibitory concentration
[4] = MRSA, CLSI broth micro-dilution, CAMH, read-out: Minimum inhibitory concentration (μM) in MRSA Mu3

Row | Compound | MIC [1, 3] | MIC [1, 4] | MIC (MSSA ATCC 6538) | MIC (MRSA-USA300LAC) | IC50 (NIH3T3 cells) | toxicity against mammalian cell NIH3T3 (NIH3T3 cells) | toxicity against mammalian cell MDCK (MDCK) | hemolytic activity on human blood cell (human red blood cell) | cell morphology under electron microscope [2]
1 | CC(C)C[C@H](ONC(=O)[C@@H](COCc1ccccc1)ONC(=O)c1cc(C(F)(F)F)cc(C(F)(F)F)c1)C(=O)Nc1ccc2c(c1)OC(F)(F)O2 [Compound 35] | 0.78 µM (≈ 0.574 µg/mL) | 0.781 µM (≈ 0.574 µg/mL) | 1.56 µM (≈ 1.15 µg/mL) | 1.56 µM (≈ 1.15 µg/mL) | > 50 µM | minimal toxicity | minimal toxicity | didn't have observable hemolytic activity | severe cell abnormality including cell burst and irregular shape of cell wall
2 | CC(C)C[C@H](ONC(=O)[C@@H](COCc1ccccc1)ONC(=O)c1cc(C(F)(F)F)cc(C(F)(F)F)c1)C(=O)Nc1ccccc1 [Compound 8] | 3.13 µM (≈ 2.05 µg/mL) | 3.13 µM (≈ 2.05 µg/mL) | 3.13 µM (≈ 2.05 µg/mL) | 3.13 µM (≈ 2.05 µg/mL) | > 50 µM | minimal toxicity | minimal toxicity | didn't have observable hemolytic activity | severe cell abnormality including cell burst and irregular shape of cell wall
